Measured values taken from US9365522B2, “Pyrazole amide derivative” (AMGEN INC., priority 2015, dated 2016).

Target: T1, human RORγ-LBD (Homo sapiens, UniProt P51449)
T1 construct: made in house; host or cells: E. coli (BL-21)
T1 sequence (P51449 262-518): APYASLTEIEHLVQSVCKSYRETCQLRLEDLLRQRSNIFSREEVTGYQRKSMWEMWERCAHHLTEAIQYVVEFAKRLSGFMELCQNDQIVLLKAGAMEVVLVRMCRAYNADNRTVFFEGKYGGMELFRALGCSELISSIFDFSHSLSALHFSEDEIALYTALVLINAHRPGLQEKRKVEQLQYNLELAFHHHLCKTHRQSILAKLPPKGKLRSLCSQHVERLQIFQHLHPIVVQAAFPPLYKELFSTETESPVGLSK
Test: ROR gamma coactivator peptide recruitment Alphascreen assay (RORγ-LBD binding to GRIP1 coactivator peptide)
Format: biochemical
Details: 5 nM human RORγ-LBD, 30 nM 7-β-hydroxycholesterol, 50 nM biotinylated GRIP1 coactivator peptide, overnight incubation at room temperature; read-out: result (pIC50, RORγ coactivator peptide recruitment Alphascreen assay) (converted)
Method in brief: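 Alphascreen proximity read-out after overnight room-temperature incubation, yielding pIC50 from 1-in-2 compound series (2.5% DMSO final). Mixture: 50 nM biotin-GRIP1 peptide, 30 nM 7-β-hydroxycholesterol agonist, 5 nM recombinant 6×His:Flag human RORγ-LBD (aa 262-518), 50 mM HEPES pH 7.4.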

Structure (SMILES) | IC50 [nM]
C[C@]1(C(=O)O)CC[C@H](n2ncc(C(=O)N(CC(=O)c3c(Cl)cccc3Cl)[C@@H]3CCC34CCC4)c2C(F)(F)F)CC1 [Example 639, trans-4-(4-((2-(2,6-dichlorophenyl)-2-oxoethyl)((1R)-spiro[3.3]hept-1-yl)carbamoyl)-5-(trifluoromethyl)-1H-pyrazol-1-yl)-1-methylcyclohexanecarboxylic acid] | 57.5
Cc1cc(Cl)c(C(=O)CN(CC2(F)CC2)C(=O)c2cnn([C@H]3CC[C@](C)(C(=O)O)CC3)c2C(F)(F)F)c(Cl)n1 [Example 703, trans-4-(4-((2-(2,4-dichloro-6-methyl-3-pyridinyl)-2-oxoethyl)((1-fluorocyclopropyl)methyl)carbamoyl)-5-(trifluoromethyl)-1H-pyrazol-1-yl)-1-methylcyclohexanecarboxylic acid] | 70.8
O=C(c1cnn([C@H]2CC[C@H](C(=O)O)CC2)c1C(F)(F)F)N(CCc1cccc2cc[nH]c12)Cc1ccc(Cl)cc1 [Example 508, trans-4-(4-((4-chlorobenzyl)(2-(1H-indol-7-yl)ethyl)carbamoyl)-5-(trifluoromethyl)-1H-pyrazol-1-yl)cyclohexanecarboxylic acid] | 759
CC(C)(C)CN(C[C@@H](O)c1c(Cl)cccc1Cl)C(=O)c1cnn([C@H]2CC[C@H](C(=O)O)CC2)c1C(F)(F)F [Example 574, trans-4-(4-(((2S)-2-(2,6-dichlorophenyl)-2-hydroxyethyl)(2,2-dimethylpropyl)carbamoyl)-5-(trifluoromethyl)-1H-pyrazol-1-yl)cyclohexanecarboxylic acid] | 2570
CC1(C)CC(CN(CC(=O)c2c(F)cccc2Cl)C(=O)c2cnn([C@H]3CC[C@@H](C(=O)O)CC3)c2C(F)(F)F)C1 [Example 596, cis-4-(4-((2-(2-chloro-6-fluorophenyl)-2-oxoethyl)((3,3-dimethylcyclobutyl)methyl)carbamoyl)-5-(trifluoromethyl)-1H-pyrazol-1-yl)cyclohexanecarboxylic acid] | 151
CC1(C)CC(CN(CC(=O)c2c(Cl)cccc2Cl)C(=O)c2cnn([C@H]3CC[C@@](C)(C(=O)O)CC3)c2C(F)(F)F)C1 [Example 672, trans-4-(4-((2-(2,6-dichlorophenyl)-2-oxoethyl)((3,3-dimethylcyclobutyl)methyl)carbamoyl)-5-(trifluoromethyl)-1H-pyrazol-1-yl)-1-methylcyclohexanecarboxylic acid] | 2.04
O=C(c1cnn([C@H]2CC[C@H](C(=O)O)CC2)c1C(F)(F)F)N(CCc1ccccc1)Cc1ccc(Cl)cc1 [Example 502, trans-4-(4-((4-chlorobenzyl)(2-phenylethyl)carbamoyl)-5-(trifluoromethyl)-1H-pyrazol-1-yl)cyclohexanecarboxylic acid] | 275
Cc1ccccc1CCN(Cc1ccc(Cl)cc1)C(=O)c1cnn([C@H]2CC[C@H](C(=O)O)CC2)c1C(F)(F)F [Example 509, trans-4-(4-((4-chlorobenzyl)(2-(2-methylphenyl)ethyl)carbamoyl)-5-(trifluoromethyl)-1H-pyrazol-1-yl)cyclohexanecarboxylic acid] | 11.5
Cc1cc(Cl)c(C(=O)CN(Cc2ccc(C(F)(F)F)cc2)C(=O)c2cnn([C@H]3CC[C@H](C(=O)O)CC3)c2C(F)(F)F)c(Cl)c1 [Example 528, trans-4-(4-((2-(2,6-dichloro-4-methylphenyl)-2-oxoethyl)(4-(trifluoromethyl)benzyl)carbamoyl)-5-(trifluoromethyl)-1H-pyrazol-1-yl)cyclohexanecarboxylic acid] | 4.17
Cc1cc(Cl)c(C(=O)CN(C[C@@]2(C)CCCO2)C(=O)c2cnn([C@H]3CC[C@](C)(C(=O)O)CC3)c2C(F)(F)F)c(Cl)c1 [Example 726, trans-4-(4-((2-(2,6-dichloro-4-methylphenyl)-2-oxoethyl)(((2R)-2-methyltetrahydro-2-furanyl)methyl)carbamoyl)-5-(trifluoromethyl)-1H-pyrazol-1-yl)-1-methylcyclohexanecarboxylic acid] | 2.75
C[C@H]1CC[C@H](CN(CC(=O)c2c(Cl)cncc2Cl)C(=O)c2cnn([C@H]3CC[C@](C)(C(=O)O)CC3)c2C(F)(F)F)O1 [Example 705, trans-4-(4-((2-(3,5-dichloro-4-pyridinyl)-2-oxoethyl)(((2R,5S)-5-methyltetrahydro-2-furanyl)methyl)carbamoyl)-5-(trifluoromethyl)-1H-pyrazol-1-yl)-1-methylcyclohexanecarboxylic acid] | 58.9
Cc1cc(Cl)c(C(=O)CN(Cc2cc(F)c(C(F)(F)F)c(F)c2)C(=O)c2cnn([C@H]3CC[C@H](C(=O)O)CC3)c2C(F)(F)F)c(Cl)c1 [Example 522, trans-4-(4-((2-(2,6-dichloro-4-methylphenyl)-2-oxoethyl)(3,5-difluoro-4-(trifluoromethyl)benzyl)carbamoyl)-5-(trifluoromethyl)-1H-pyrazol-1-yl)cyclohexanecarboxylic acid] | 2.09
CC(C)(C)CN(CC(=O)c1c(Cl)cncc1Cl)C(=O)c1cnn([C@H]2CC[C@H](CC(=O)O)CC2)c1C(F)(F)F [Example 719, (trans-4-(4-((2-(3,5-dichloro-4-pyridinyl)-2-oxoethyl)(2,2-dimethylpropyl)carbamoyl)-5-(trifluoromethyl)-1H-pyrazol-1-yl)cyclohexyl)acetic acid] | 6.03
C[C@H]1C[C@@H](n2ncc(C(=O)N(CC(=O)c3c(Cl)cccc3Cl)CC3CC(C)(C)C3)c2C(F)(F)F)CC[C@H]1C(=O)O [Example 684, (1R,2S,4S)-4-(4-((2-(2,6-dichlorophenyl)-2-oxoethyl)((3,3-dimethylcyclobutyl)methyl)carbamoyl)-5-(trifluoromethyl)-1H-pyrazol-1-yl)-2-methylcyclohexanecarboxylic acid] | 13.8

The remaining lines, values ahead:

IC50 [nM] | Structure (SMILES)
1.45 | C[C@@H]1C[C@@H](n2ncc(C(=O)N(CC(=O)c3c(Cl)ccc(F)c3Cl)[C@H]3C[C@@H]4[C@H](C3)C4(C)C)c2C(F)(F)F)CC[C@@H]1C(=O)O [Example 845, (1S,2R,4S)-4-(4-((2-(2,6-dichloro-3-fluorophenyl)-2-oxoethyl)((1R,3r,5S)-6,6-dimethylbicyclo[3.1.0]hexan-3-yl)carbamoyl)-5-(trifluoromethyl)-1H-pyrazol-1-yl)-2-methylcyclohexanecarboxylic acid]
102 | CC(C)(C)CN(CC(=O)c1c(Cl)cncc1Cl)C(=O)c1cnn([C@H]2CC[C@@](C)(CC(=O)O)CC2)c1C(F)(F)F [Example 792, (cis-4-(4-((2-(3,5-dichloro-4-pyridinyl)-2-oxoethyl)(2,2-dimethylpropyl)carbamoyl)-5-(trifluoromethyl)-1H-pyrazol-1-yl)-1-methylcyclohexyl)acetic acid]
3.55 | Cc1ncc(Cl)c(C(=O)CN(C(=O)c2cnn([C@H]3CC[C@](C)(C(=O)O)CC3)c2C(F)(F)F)[C@H]2C[C@@H]3[C@H](C2)C3(C)C)c1Cl [Example 758, trans-4-(4-((2-(3,5-dichloro-2-methyl-3-pyridinyl)-2-oxoethyl)((1R,3r,5S)-6,6-dimethylbicyclo[3.1.0]hex-3-yl)carbamoyl)-5-(trifluoromethyl)-1H-pyrazol-1-yl)-1-methylcyclohexanecarboxylic acid]
33.9 | C[C@@H]1C[C@](C)(C(=O)O)CC[C@@H]1n1ncc(C(=O)N(CC(=O)c2c(Cl)cncc2Cl)CC(C)(C)C)c1C(F)(F)F [Example 857, (1R,3R,4S)-4-(4-((2-(3,5-dichloro-4-pyridinyl)-2-oxoethyl)(2,2-dimethylpropyl)carbamoyl)-5-(trifluoromethyl)-1H-pyrazol-1-yl)-1,3-dimethylcyclohexanecarboxylic acid]
97.7 | COc1ncc(Cl)c(CCN(CC(C)(C)C)C(=O)c2cnn([C@H]3CC[C@](C)(C(=O)O)CC3)c2C(F)(F)F)c1Cl [Example 872, trans-4-(4-((2-(3,5-dichloro-2-methoxy-4-pyridinyl)ethyl)(2,2-dimethylpropyl)carbamoyl)-5-(trifluoromethyl)-1H-pyrazol-1-yl)-1-methylcyclohexanecarboxylic acid]
7.59 | C[C@H](C(=O)O)[C@H]1CC[C@H](n2ncc(C(=O)N(CC(=O)c3c(Cl)cncc3Cl)Cc3cc(F)cc(F)c3)c2C(F)(F)F)CC1 [Example 780, 2-(trans-4-(4-((2-(3,5-dichloro-4-pyridinyl)-2-oxoethyl)(3,5-difluorobenzyl)carbamoyl)-5-(trifluoromethyl)-1H-pyrazol-1-yl)cyclohexyl)propanoic acid]
891 | C[C@@H]1C[C@@H](n2ncc(C(=O)N(CC(=O)c3c(Cl)cncc3Cl)CC3CCC4(CC3)CC4)c2C(F)(F)F)CC[C@@H]1C(=O)O [Example 852, (1S,2R,4S)-4-(4-((2-(3,5-dichloro-4-pyridinyl)-2-oxoethyl)(spiro[2.5]oct-6-ylmethyl)carbamoyl)-5-(trifluoromethyl)-1H-pyrazol-1-yl)-2-methylcyclohexanecarboxylic acid]
12.9 | C[C@@]1(CN(CC(=O)c2c(Cl)ccc(F)c2Cl)C(=O)c2cnn([C@H]3CC[C@](C)(C(=O)O)CC3)c2C(F)(F)F)CCCO1 [Example 815, trans-4-(4-((2-(2,6-dichloro-3-fluorophenyl)-2-oxoethyl)(((2S)-2-methyltetrahydro-2-furanyl)methyl)carbamoyl)-5-(trifluoromethyl)-1H-pyrazol-1-yl)-1-methylcyclohexanecarboxylic acid]
